# Test results: patent US5545547A, “Enzymes as agricultural chemical adjuvants” (priority 1992, dated 1996)
# Key:
# Format in all cases: in vivo
# Soybeans = experiment: Greenhouse multispecies herbicide screen with/without P. mendocina enzyme; details: one week after treatment
# Description: (§1) Several plant species including weeds and crops are used in these experiments.
# (§2) A number of herbicides from various chemical classes were compared in a multispecies screen for percent chlorosis, necrosis and vigor reduction both with and without application of the enzyme from Pseudomonas mendocina ATCC 53552 described earlier. The herbicides were applied to various plants at the manufacturers recommended doses and at 10% and 40% of the recommended dose. Two different enzyme concentrations were used: 0.5 mg/ml (HE) and 0.05 mg/ml (LE) and applied at the rate of 40 gallons/acre. All spraying solutions were at pH 10 and contained 100 mm sodium phosphate each. Ratings were done at 6 and 12 days after the treatment. All the experiments were carried out in a greenhouse.
# (§3) Chlorosis--figures represent percent of plants showing chlorosis.
# (§4) Necrosis--figures represent percent of plants showing necrosis.
# (§5) Vigor--figures represent percent of plants showing decreased vigor.
# (§6) Phytotoxicity--figures represent the average percent of chlorosis, necrosis, and vigor for a given sample.
# (§7) The method of Example 1 was used except that the enzyme was applied 2 hours prior to administering the agricultural chemical with the following results. Ratings were done two weeks after treatment
# Turnip = experiment: as above; details: one week after treatment
# Description: as §1, §2, §3, §4, §5, §6, §7
# Giant Fox Tail [1] = experiment: as above
# Protocol: as §1
# A number of herbicides from various chemical classes were compared in a multispecies screen for percent chlorosis, necrosis and vigor reduction both with and without application of the enzyme from Pseudomonas mendocina ATCC 53552 described earlier. […] Two different enzyme concentrations were used: 0.5 mg/ml (HE) and 0.05 mg/ml (LE) and applied at the rate of 40 gallons/acre. All spraying solutions were at pH 10 and contained 100 mm sodium phosphate each. Ratings were done at 6 and 12 days after the treatment. All the experiments were carried out in a greenhouse.
# as §3, §4, §5, §6
# [2] = test system: Beefsteak Tomato seedlings; experiment: HYVAR uptake by whole plants, effect of macerating enzymes (GC219); design: key: -=No phytotoxicity; +=Some phytotoxicity seen in area of treatment.; ++=Phytotoxicity seen outside area of treatment
# Protocol: 13-16 day old Beefsteak Tomato seedlings were treated with solutions of HYVAR herbicides [5-bromo-6-methyl-3-(1-methylpropyl)-2,4-(1H,3H)-pyrimidinedione] and GC219. Solutions of Hyvar and GC219 were made up on DI H2 O and 1% ethanol and adjusted with 0.1N HCL to a final pH of 4.0. 10 ul of solution was applied to each cotyledon and 15 ul to each secondary pentafoliate leaflet. 10 tomato seedlings were used for each test solutions. Observations were made daily after treatment for 4 days.
# HYVAR herbicide [5-bromo-6-methyl-3-(1-methylpropyl)-2,4-(1H,3H)-pyrimidinedione] was diluted 1:200 or 1:400 for each experiment.
# Giant Fox Tail [3] = experiment: Greenhouse multispecies herbicide screen with/without P. mendocina enzyme; details: HYVAR 18%, two weeks after treatment
# [4] = HYVAR 10% dose, High Enzyme, one week after treatment
# [5] = HYVAR 10% dose, Low Enzyme, one week after treatment
# [6] = HYVAR 10% dose, No Enzyme, one week after treatment
# [7] = HYVAR 18%, High Enzyme, two weeks after treatment
# [8] = HYVAR 18%, Low Enzyme, two weeks after treatment
# [9] = HYVAR 18%, No Enzyme, two weeks after treatment
# [10] = HYVAR 40% dose, High Enzyme, one week after treatment
# [11] = HYVAR 40% dose, Low Enzyme, one week after treatment
# [12] = HYVAR 40% dose, No Enzyme, one week after treatment
# [13] = HYVAR 100% dose, No Enzyme, one week after treatment
smiles,measurement,setting,value
"CCC(C)n1c(=O)[nH]c(C)c(Br)c1=O (stereo not shown) [HYVAR, 5-bromo-6-methyl-3-(1-methylpropyl)-2,4-(1H,3H)-pyrimidinedione]",CHL (chlorosis),"Soybeans; HYVAR 10% dose, High Enzyme",25%
same,NEC (necrosis),"Soybeans; HYVAR 10% dose, High Enzyme",50%
same,PHY (phytotoxicity),"Soybeans; HYVAR 10% dose, High Enzyme",42%
same,VIG (vigor),"Soybeans; HYVAR 10% dose, High Enzyme",50%
same,CHL (chlorosis),"Soybeans; HYVAR 10% dose, Low Enzyme",90%
same,NEC (necrosis),"Soybeans; HYVAR 10% dose, Low Enzyme",83%
same,PHY (phytotoxicity),"Soybeans; HYVAR 10% dose, Low Enzyme",88%
same,VIG (vigor),"Soybeans; HYVAR 10% dose, Low Enzyme",90%
same,CHL (chlorosis),"Soybeans; HYVAR 10% dose, No Enzyme",55%
same,NEC (necrosis),"Soybeans; HYVAR 10% dose, No Enzyme",75%
same,PHY (phytotoxicity),"Soybeans; HYVAR 10% dose, No Enzyme",68%
same,VIG (vigor),"Soybeans; HYVAR 10% dose, No Enzyme",75%
same,CHL (chlorosis),"Soybeans; HYVAR 40% dose, High Enzyme",45%
same,NEC (necrosis),"Soybeans; HYVAR 40% dose, High Enzyme",50%
same,PHY (phytotoxicity),"Soybeans; HYVAR 40% dose, High Enzyme",59%
same,VIG (vigor),"Soybeans; HYVAR 40% dose, High Enzyme",83%
same,CHL (chlorosis),"Soybeans; HYVAR 40% dose, Low Enzyme",55%
same,NEC (necrosis),"Soybeans; HYVAR 40% dose, Low Enzyme",88%
same,PHY (phytotoxicity),"Soybeans; HYVAR 40% dose, Low Enzyme",72%
same,VIG (vigor),"Soybeans; HYVAR 40% dose, Low Enzyme",73%
same,CHL (chlorosis),"Soybeans; HYVAR 40% dose, No Enzyme",45%
same,NEC (necrosis),"Soybeans; HYVAR 40% dose, No Enzyme",60%
same,PHY (phytotoxicity),"Soybeans; HYVAR 40% dose, No Enzyme",39%
same,VIG (vigor),"Soybeans; HYVAR 40% dose, No Enzyme",73%
same,CHL (chlorosis),"Soybeans; HYVAR 100% dose, No Enzyme",100%
same,NEC (necrosis),"Soybeans; HYVAR 100% dose, No Enzyme",100%
same,PHY (phytotoxicity),"Soybeans; HYVAR 100% dose, No Enzyme",100%
same,VIG (vigor),"Soybeans; HYVAR 100% dose, No Enzyme",100%
same,CK (chlorosis),"Turnip; HYVAR 10% dose, High Enzyme",50%
same,NEC (necrosis),"Turnip; HYVAR 10% dose, High Enzyme",85%
same,PHY (phytotoxicity),"Turnip; HYVAR 10% dose, High Enzyme",73%
same,VIG (vigor),"Turnip; HYVAR 10% dose, High Enzyme",83%
same,CK (chlorosis),"Turnip; HYVAR 10% dose, Low Enzyme",70%
same,NEC (necrosis),"Turnip; HYVAR 10% dose, Low Enzyme",90%
same,PHY (phytotoxicity),"Turnip; HYVAR 10% dose, Low Enzyme",84%
same,VIG (vigor),"Turnip; HYVAR 10% dose, Low Enzyme",93%
same,CK (chlorosis),"Turnip; HYVAR 10% dose, No Enzyme",70%
same,NEC (necrosis),"Turnip; HYVAR 10% dose, No Enzyme",93%
same,PHY (phytotoxicity),"Turnip; HYVAR 10% dose, No Enzyme",84%
same,VIG (vigor),"Turnip; HYVAR 10% dose, No Enzyme",90%
same,CK (chlorosis),"Turnip; HYVAR 40% dose, High Enzyme",97%
same,NEC (necrosis),"Turnip; HYVAR 40% dose, High Enzyme",97%
same,PHY (phytotoxicity),"Turnip; HYVAR 40% dose, High Enzyme",97%
same,VIG (vigor),"Turnip; HYVAR 40% dose, High Enzyme",98%
same,CK (chlorosis),"Turnip; HYVAR 40% dose, Low Enzyme",93%
same,NEC (necrosis),"Turnip; HYVAR 40% dose, Low Enzyme",95%
same,PHY (phytotoxicity),"Turnip; HYVAR 40% dose, Low Enzyme",94%
same,VIG (vigor),"Turnip; HYVAR 40% dose, Low Enzyme",95%
same,CK (chlorosis),"Turnip; HYVAR 40% dose, No Enzyme",65%
same,NEC (necrosis),"Turnip; HYVAR 40% dose, No Enzyme",73%
same,PHY (phytotoxicity),"Turnip; HYVAR 40% dose, No Enzyme",74%
same,VIG (vigor),"Turnip; HYVAR 40% dose, No Enzyme",85%
same,CK (chlorosis),"Turnip; HYVAR 100% dose, No Enzyme",100%
same,NEC (necrosis),"Turnip; HYVAR 100% dose, No Enzyme",95%
same,PHY (phytotoxicity),"Turnip; HYVAR 100% dose, No Enzyme",95%
same,VIG (vigor),"Turnip; HYVAR 100% dose, No Enzyme",90%
same,CHL (chlorosis),Giant Fox Tail [1]; [4],18%
same,NEC (necrosis),Giant Fox Tail [1]; [4],18%
same,PHY (phytotoxicity),Giant Fox Tail [1]; [4],22%
same,VIG (vigor),Giant Fox Tail [1]; [4],30%
same,CHL (chlorosis),Giant Fox Tail [1]; [5],50%
same,NEC (necrosis),Giant Fox Tail [1]; [5],30%
same,PHY (phytotoxicity),Giant Fox Tail [1]; [5],43%
same,VIG (vigor),Giant Fox Tail [1]; [5],50%
same,CHL (chlorosis),Giant Fox Tail [1]; [6],40%
same,NEC (necrosis),Giant Fox Tail [1]; [6],30%
same,PHY (phytotoxicity),Giant Fox Tail [1]; [6],40%
same,VIG (vigor),Giant Fox Tail [1]; [6],50%
same,NEC (necrosis),Giant Fox Tail [1]; [7],75%
same,PHY (phytotoxicity),Giant Fox Tail [1]; [7],75%
same,VIG (vigor),Giant Fox Tail [1]; [7],75%
same,CHL (chlorosis),Giant Fox Tail [1]; [8],73%
same,PHY (phytotoxicity),Giant Fox Tail [1]; [8],73%
same,CHL (chlorosis),Giant Fox Tail [1]; [9],65%
same,NEC (necrosis),Giant Fox Tail [1]; [9],63%
same,PHY (phytotoxicity),Giant Fox Tail [1]; [9],64%
same,VIG (vigor),Giant Fox Tail [1]; [9],63%
same,CHL (chlorosis),Giant Fox Tail [1]; [10],38%
same,NEC (necrosis),Giant Fox Tail [1]; [10],50%
same,PHY (phytotoxicity),Giant Fox Tail [1]; [10],30%
same,VIG (vigor),Giant Fox Tail [1]; [10],63%
same,CHL (chlorosis),Giant Fox Tail [1]; [11],43%
same,NEC (necrosis),Giant Fox Tail [1]; [11],65%
same,PHY (phytotoxicity),Giant Fox Tail [1]; [11],57%
same,VIG (vigor),Giant Fox Tail [1]; [11],63%
same,CHL (chlorosis),Giant Fox Tail [1]; [12],50%
same,NEC (necrosis),Giant Fox Tail [1]; [12],38%
same,PHY (phytotoxicity),Giant Fox Tail [1]; [12],48%
same,VIG (vigor),Giant Fox Tail [1]; [12],55%
same,CHL (chlorosis),Giant Fox Tail [1]; [13],60%
same,NEC (necrosis),Giant Fox Tail [1]; [13],60%
same,PHY (phytotoxicity),Giant Fox Tail [1]; [13],65%
same,VIG (vigor),Giant Fox Tail [1]; [13],75%
same,PHYTOTOXICITY RATING,"[2]; HYVAR (1:400 dilution), Day 2",-
same,PHYTOTOXICITY RATING,"[2]; HYVAR (1:400 dilution), Day 3",-
same,PHYTOTOXICITY RATING,"[2]; HYVAR alone (1:200 dilution), Day 1",-
same,PHYTOTOXICITY RATING,"[2]; HYVAR alone (1:200 dilution), Day 2",+
same,PHYTOTOXICITY RATING,"[2]; first experiment (1:200), HYVAR + 6.28 mg/ml GC219, Day 1",+
same,PHYTOTOXICITY RATING,"[2]; first experiment (1:200), HYVAR + 6.28 mg/ml GC219, Day 2",++
same,PHYTOTOXICITY RATING,"[2]; second experiment (1:400), HYVAR + 6.28 mg/ml GC219, Day 2",+
same,PHYTOTOXICITY RATING,"[2]; second experiment (1:400), HYVAR + 6.28 mg/ml GC219, Day 3",++
same,PHYTOTOXICITY RATING,"[2]; second experiment (1:400), HYVAR + 12.6 mg/ml GC219, Day 2",++
same,PHYTOTOXICITY RATING,"[2]; second experiment (1:400), HYVAR + 12.6 mg/ml GC219, Day 3",++
same,CHL (chlorosis),Giant Fox Tail [3]; High Enzyme,75%
same,NEC (necrosis),Giant Fox Tail [3]; Low Enzyme,73%
same,VIG (vigor),Giant Fox Tail [3]; Low Enzyme,73%
